Measurements as given in patent US4837353A, “Dopamine-β-hydroxylase inhibitors” (SmithKline Beckman Corporation, priority 1988, dated 1989).
Where a name gives a salt, the structure may show the parent alone.

Legend:
DBH = target: T1, DBH (Homo sapiens, UniProt P09172); details: cited from earlier work; for DBH inhibition (in words): literature reports; for mode of DBH inhibition: phenethylalamine analogues
T1 sequence (P09172 1-617): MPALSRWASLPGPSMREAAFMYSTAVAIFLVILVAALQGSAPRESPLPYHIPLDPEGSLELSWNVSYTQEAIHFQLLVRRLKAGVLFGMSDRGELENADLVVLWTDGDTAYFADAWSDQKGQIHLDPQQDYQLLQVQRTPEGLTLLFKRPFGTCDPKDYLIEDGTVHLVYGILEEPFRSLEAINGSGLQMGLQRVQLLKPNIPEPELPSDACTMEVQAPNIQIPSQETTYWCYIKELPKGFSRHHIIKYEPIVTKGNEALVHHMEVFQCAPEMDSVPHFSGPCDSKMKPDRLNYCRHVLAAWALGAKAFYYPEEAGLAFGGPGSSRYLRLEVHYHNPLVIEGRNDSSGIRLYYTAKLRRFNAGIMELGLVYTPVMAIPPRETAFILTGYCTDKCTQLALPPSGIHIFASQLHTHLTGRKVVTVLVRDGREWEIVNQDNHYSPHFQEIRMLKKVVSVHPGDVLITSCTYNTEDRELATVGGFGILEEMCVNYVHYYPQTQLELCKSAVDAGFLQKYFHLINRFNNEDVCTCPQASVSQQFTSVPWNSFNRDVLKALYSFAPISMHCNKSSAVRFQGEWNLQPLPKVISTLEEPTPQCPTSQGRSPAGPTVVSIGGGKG

[1] = test system: spontaneously hypertensive rats; experiment: mean arterial blood pressure in spontaneously hypertensive rats; type: in vivo, rat; details: 50 mg/kg intraperitoneally
Method: Further, spontaneously hypertensive rats were treated with a suspension or solution of N-(2-aminoethyl)-1-(3,5-difluorobenzyl)-2-mercaptoimidazole-5-carboxamid formate at a dose of 50 mg/kg intraperitoneally, and mean arterial blood pressure was monitored for 260 minutes using indwelling cannulae in the tail arteries.

## CCCCc1ccc(C(N)=O)nc1 [Bupicomide, 5-(n-butyl)picolinamine]
DBH
  DBH inhibition (in words): DBH inhibitor

## CN(C)C(=S)SCc1ccc(C(=O)O)nc1 [5-(dimethyldithiocarbamoylmethyl)picolinic acid]
DBH
  DBH inhibition (in words): DBH inhibitors

## O=C(O)c1ccc(CCCCCl)cn1 [5-(4-chlorobutyl) picolinic acid]
DBH
  DBH inhibition (in words): inhibit DBH

## NOCc1ccccc1 [Benzyloxyamine, benzyloxyamine]
DBH
  mode of DBH inhibition: apparently act as competitive inhibitors

## NCCNC(=O)c1cnc(S)n1Cc1cc(F)cc(F)c1 [N-(2-Aminoethyl)-1-(3,5-difluorobenzyl)-2-mercaptoimidazole-5-carboxamide,formate]
[1]; 260 minutes
  blood pressure when monitoring was terminated: blood pressure remained decreased when monitoring was terminated
[1]; tail artery cannulae, monitored for 260 minutes
  mean arterial blood pressure reduction compared to vehicle-treated controls: significant blood pressure reductions
[1]; vs vehicle-treated controls
  time following treatment to significant blood pressure reductions: ≤ 30 min

## O=C(O)c1ccc(CCC(Br)CBr)cn1 (stereo not drawn) [5-(3,4-dibromobutyl)picolinic acid]
DBH
  DBH inhibition (in words): DBH inhibitors

## NNCc1ccccc1 [benzylhydrazine]
DBH
  mode of DBH inhibition: apparently act as competitive inhibitors
